The record followed here is patent publication US20230058623A1, “NOVEL HETEROARYL-TRIAZOLE COMPOUNDS AS PESTICIDES” (Bayer Aktiengesellschaft, priority 2019, published 2023).

What all share (assay type): in vivo
Assay [1] relates to Rhipicephalus (Boophilus) microplus larvae (strain Parkhurst, resistant against synthetic pyrethroids). Put plainly: Rhipicephalus (Boophilus) microplus in-vitro contact test, larval cattle tick. The conditions noted are these: after 48 hours, read-out: activity (efficacy: larvae dead or moribund); for pest or weed control at 1 µg/cm2, 100 g/ha: application rate 1 μg/cm^2 (=100 g/ha); for pest or weed control at 5 µg/cm2, 500 g/ha: application rate 5 μg/cm^2 (=500 g/ha). The method in brief:
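Pyrethroid-resistant Parkhurst larvae, 20–50 per tube, were kept 48 h at 27 °C and 85% relative humidity in glass tubes whose inner walls carried a dried acetone film of compound (900 ppm giving 5 μg/cm^2). Dead or moribund larvae, judged by loss of negative geotactic behavior, set percent efficacy.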

Assay [2] concerns adult engorged female ticks (Rhipicephalus microplus). Put plainly: Rhipicephalus (Boophilus) microplus injection test. The settings on record: 168 h, application rate 4 μg/tick, egg deposition after 7 days, read-out: activity (efficacy: infertile eggs). The procedure, abridged: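 Compound in DMSO (10 mg per 0.5 mL, then diluted with DMSO to test concentration); 1 μL injected into the abdomen of each of five engorged females, then held in a climate chamber. Fertile egg deposition checked at 7 days; efficacy 100% = all eggs infertile, 0% = all fertile.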

Assay [3] relates to adult unfed cat fleas (Ctenocephalides felis). Kind of assay: Ctenocephalides felis oral test. The settings on record: 48 h, read-out: activity (mortality). The procedure, abridged:
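About 20 adult unfed cat fleas fed through parafilm on citrated cattle blood containing compound (from a DMSO concentrate). Blood held at 37° C, fleas at room temperature. Mortality in % scored after 2 days.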

The subject of assay [4] is adult brown dog ticks (Rhipicephalus sanguineus). Put plainly: Rhipicephalus sanguineus in-vitro contact test, adult brown dog ticks. The conditions noted are these: application rate 5 μg/cm^2 (=500 g/ha), after 48 hours, read-out: activity (efficacy: ticks dead or moribund). The method in brief: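 Efficacy is % of adult ticks dead or moribund 48 h after confinement at room temperature in tubes wall-coated from acetone (5 μg/cm² at 900 ppm). Scoring by heat challenge at 45-50 °C up to 5 min; immotile or uncoordinated ticks failing to climb count as affected.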

Assay [5] deals with southern root-knot nematode (Meloidogyne incognita). Put plainly: Meloidogyne incognita test. The conditions noted are these: application rate 20 ppm; after 14 days. The method, then:
Meloidogyne incognita—Test
Solvent: 125.0 parts by weight of acetone
To produce a suitable preparation of active compound, 1 part by weight of active compound is mixed with the stated amount of solvent, and the concentrate is diluted with water to the desired concentration.
Vessels are filled with sand, a solution of the active ingredient, a suspension containing eggs and larvae of the southern root-knot nematode (Meloidogyne incognita) and salad seeds. The salad seeds germinate and the seedlings grow. Galls develop in the roots.
After 14 days the nematicidal activity is determined based on the percentage of gall formation. 100% means no galls were found and 0% means the number of galls found on the roots of the treated plants was equal to that in untreated control plants.

In assay [6] the test system is green peach aphid (Myzus persicae). Kind of assay: Myzus persicae oral test. The conditions noted are these: 120 h, read-out: activity (mortality). The procedure, abridged: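 Aphids of mixed population ingest the compound preparation by sucking through a parafilm sheet stretched over wells holding test solution plus IPL41 insect medium (33%+15% sugar). Kill rate in percent is determined five days later.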

Assay [7] has as its system larvae of the southern green stink bug (Nezara viridula). Kind of assay: Nezara viridula spray test. The conditions noted are these: 96 h, after 4 days, barley plants. The procedure, abridged: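 Barley plants sprayed with the active compound in emulsifier-containing water, then infested with stink bug larvae. Mortality scored in % after 4 days, with 100% meaning all insects killed.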

For assay [8], the system named is brown planthopper (Nilaparvata lugens). Put plainly: Nilaparvata lugens spray test. The conditions noted are these: 96 h, application rate 500 g/ha, after 4 days, rice plants. The procedure, abridged:
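Rice plants sprayed with compound diluted in water containing 1000 ppm emulsifier, then infested with brown planthopper. Mortality (%) scored after 4 days, 100% meaning all insects killed.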

Broadly, the mortality is the share of the test organisms that died. For `Cc1nc([C@H](C)NC(=O)c2cc(Cl)cc(C(F)(F)F)c2)n(-c2cc(C(=O)N3CCCC3)ccn2)n1` [Example I-27], in assay [1], the pest or weed control at 1 µg/cm2, 100 g/ha came out at 100%. For the same molecule, the pest or weed control at 5 µg/cm2, 500 g/ha came out at 100% in assay [1] and 80% in assay [4]. Further, the pest or weed control at 0.004 mg in assay [2] was determined as 80%. Also, the mortality at 100 ppm in assay [3] turned out to be 100%. Besides, the “activity (nematicidal activity based on gall formation)” value (from here on “activity”) in assay [5] is on record as 90%.
As for `Cc1nc([C@H](C)NC(=O)c2cc(Cl)cc(C(F)(F)F)c2)n(-c2cc(C(=O)N3CCC3)ccn2)n1` [Example I-28], in assay [1], the pest or weed control at 1 µg/cm2, 100 g/ha is 90% and the pest or weed control at 5 µg/cm2, 500 g/ha came to 90%. Moreover, the pest or weed control at 0.004 mg in assay [2] was 80%. The mortality at 100 ppm in assay [3] was found to be 100%. The “activity” value in assay [5] was 90%.
As to `CC1CN(C(=O)c2ccc(-n3ncnc3[C@H](C)NC(=O)c3cc(C(F)(F)F)cc(S(C)(=O)=O)c3)nc2)CCO1` (stereo partly shown) [Example I-81], in assay [5], the “activity” value was 100%. In addition, the mortality at 4 ppm in assay [6] turned out to be 100%. In assay [7] (application rate 100 g/ha), this molecule had a mortality at 100 g/ha of 100%. Moreover, the mortality at 500 g/ha was determined as 100% in assay [7] (application rate 500 g/ha, read-out: activity (mortality)) and 100% in assay [8].
